Test results reported in ChEMBL document CHEMBL1155124, “Synthesis and activity of N-cyanoguanidine-piperazine P2X7 antagonists” (Bioorg Med Chem Lett, 2008).
Converted amounts (≈) assume the structure as drawn. The source made the active and inactive calls. No cut-off for these calls is given here.

Experiments:
P2X purinoceptor 7 [1] = target: T1, P2X purinoceptor 7 (Homo sapiens, UniProt Q99572); assay: Antagonist activity at human recombinant P2X7 receptor assessed as inhibition of BzATP induced calcium flux by FLIPR assay; format: functional
T1 sequence (Q99572 whole entry): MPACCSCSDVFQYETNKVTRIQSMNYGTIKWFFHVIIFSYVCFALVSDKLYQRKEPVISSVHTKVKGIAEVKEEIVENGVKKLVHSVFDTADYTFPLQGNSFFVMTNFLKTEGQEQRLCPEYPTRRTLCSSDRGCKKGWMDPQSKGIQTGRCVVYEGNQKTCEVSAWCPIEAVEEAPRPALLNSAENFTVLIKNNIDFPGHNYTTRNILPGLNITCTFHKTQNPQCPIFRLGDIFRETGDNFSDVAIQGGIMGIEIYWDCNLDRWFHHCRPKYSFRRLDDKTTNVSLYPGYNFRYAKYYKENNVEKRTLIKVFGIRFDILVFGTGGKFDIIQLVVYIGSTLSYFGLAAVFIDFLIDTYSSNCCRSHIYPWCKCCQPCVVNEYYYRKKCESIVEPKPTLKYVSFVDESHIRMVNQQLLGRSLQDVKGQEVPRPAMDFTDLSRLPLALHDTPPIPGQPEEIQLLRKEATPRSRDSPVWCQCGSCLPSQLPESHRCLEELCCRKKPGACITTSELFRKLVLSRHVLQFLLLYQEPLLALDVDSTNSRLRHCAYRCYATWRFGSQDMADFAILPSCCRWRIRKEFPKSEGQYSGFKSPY

P2X purinoceptor 7 [2] = target: T2, P2X purinoceptor 7 (Rattus norvegicus, UniProt Q64663); assay: Antagonist activity at rat recombinant P2X7 receptor assessed as inhibition of BzATP induced calcium flux by FLIPR assay; format: functional
T2 sequence (Q64663 whole entry): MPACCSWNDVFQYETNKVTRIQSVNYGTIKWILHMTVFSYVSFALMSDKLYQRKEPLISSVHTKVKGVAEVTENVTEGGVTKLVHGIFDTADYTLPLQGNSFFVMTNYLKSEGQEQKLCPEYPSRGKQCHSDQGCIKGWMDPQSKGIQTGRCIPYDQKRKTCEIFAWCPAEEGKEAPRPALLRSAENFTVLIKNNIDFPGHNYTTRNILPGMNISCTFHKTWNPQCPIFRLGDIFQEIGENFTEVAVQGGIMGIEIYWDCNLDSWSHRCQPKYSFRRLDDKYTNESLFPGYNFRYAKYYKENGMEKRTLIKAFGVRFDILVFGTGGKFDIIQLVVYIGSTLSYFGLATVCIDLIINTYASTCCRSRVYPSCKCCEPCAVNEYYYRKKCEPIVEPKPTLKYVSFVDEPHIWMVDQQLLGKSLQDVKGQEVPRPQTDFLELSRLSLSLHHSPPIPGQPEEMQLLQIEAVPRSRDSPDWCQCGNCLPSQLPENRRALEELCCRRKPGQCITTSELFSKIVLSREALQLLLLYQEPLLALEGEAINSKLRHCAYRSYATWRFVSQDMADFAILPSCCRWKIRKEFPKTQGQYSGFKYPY

Blood [3] = assay: Inhibition of IL1-beta release in LPS/ATP stimulated human whole blood; format: functional, tissue-based
[4] = Metabolic stability in rat liver microsomes assessed as compound remaining after 1 hr; format: ADME, Microsome; details: read-out: Stability
[5] = Plasma clearance in rat at 5 mg/kg, iv; format: ADME, organism-based; set-up: dose 5 mg/kg, route intravenous
[6] = Volume of distribution at steady state in rat at 5 mg/kg, iv; format: ADME, organism-based; set-up: dose 5 mg/kg, route intravenous; details: in vivo, read-out: Vdss
Blood [7] = assay: Inhibition of IL18 release in LPS/ATP stimulated human whole blood; format: functional, tissue-based
[8] = Half life in rat at 5 mg/kg, iv; format: ADME, organism-based; set-up: dose 5 mg/kg, route intravenous; details: in vivo
[9] = Oral bioavailability in rat; format: ADME, organism-based; details: in vivo
[10] = Aqueous solubility of the compound; format: physicochemical; details: buffer
[11] = Metabolic stability in rat liver microsomes assessed as compound remaining after 25 mins; format: ADME, Microsome; details: read-out: Stability
[12] = target: T3, P2X purinoceptor 3 (Homo sapiens) (UniProt P56373); assay: Antagonist activity at P2X3 receptor at 10 uM; format: functional
T3 sequence (whole entry): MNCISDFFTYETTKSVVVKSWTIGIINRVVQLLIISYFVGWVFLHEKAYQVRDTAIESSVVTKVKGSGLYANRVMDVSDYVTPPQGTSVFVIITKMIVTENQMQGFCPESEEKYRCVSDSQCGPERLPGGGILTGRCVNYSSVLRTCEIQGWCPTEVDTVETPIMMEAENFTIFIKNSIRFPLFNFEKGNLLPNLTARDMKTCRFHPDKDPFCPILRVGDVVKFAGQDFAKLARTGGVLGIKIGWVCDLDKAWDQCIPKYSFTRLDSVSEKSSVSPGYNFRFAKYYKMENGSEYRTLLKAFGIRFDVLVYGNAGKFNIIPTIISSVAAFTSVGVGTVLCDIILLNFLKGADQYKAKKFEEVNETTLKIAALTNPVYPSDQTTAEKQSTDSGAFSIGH

[13] = target: T4, P2X purinoceptor 4 (Homo sapiens) (UniProt Q99571); assay: Antagonist activity at P2X4 receptor at 10 uM; format: functional
T4 sequence (whole entry): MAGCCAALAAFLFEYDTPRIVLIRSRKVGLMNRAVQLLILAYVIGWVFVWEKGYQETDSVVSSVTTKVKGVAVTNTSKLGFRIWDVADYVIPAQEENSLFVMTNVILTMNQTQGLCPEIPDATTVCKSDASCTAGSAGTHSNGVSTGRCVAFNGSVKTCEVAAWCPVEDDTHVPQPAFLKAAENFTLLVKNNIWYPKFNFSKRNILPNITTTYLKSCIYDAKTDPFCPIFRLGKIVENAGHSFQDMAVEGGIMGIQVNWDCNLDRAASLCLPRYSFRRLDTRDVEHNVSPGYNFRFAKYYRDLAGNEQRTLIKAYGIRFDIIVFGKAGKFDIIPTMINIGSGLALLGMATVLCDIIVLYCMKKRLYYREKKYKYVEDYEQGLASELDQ

[14] = target: P2X2/P2X3 heterotrimeric receptor (Homo sapiens) (UniProt Q9UBL9+P56373); assay: Antagonist activity at P2X2/3 receptor at 10 uM; format: functional
[15] = target: P2Y purinoceptor 2 (Homo sapiens) (UniProt P41231); assay: Antagonist activity at P2Y2 receptor at 10 uM; format: functional
P2Y purinoceptor 2 (Homo sapiens), sequence (P41231 whole entry): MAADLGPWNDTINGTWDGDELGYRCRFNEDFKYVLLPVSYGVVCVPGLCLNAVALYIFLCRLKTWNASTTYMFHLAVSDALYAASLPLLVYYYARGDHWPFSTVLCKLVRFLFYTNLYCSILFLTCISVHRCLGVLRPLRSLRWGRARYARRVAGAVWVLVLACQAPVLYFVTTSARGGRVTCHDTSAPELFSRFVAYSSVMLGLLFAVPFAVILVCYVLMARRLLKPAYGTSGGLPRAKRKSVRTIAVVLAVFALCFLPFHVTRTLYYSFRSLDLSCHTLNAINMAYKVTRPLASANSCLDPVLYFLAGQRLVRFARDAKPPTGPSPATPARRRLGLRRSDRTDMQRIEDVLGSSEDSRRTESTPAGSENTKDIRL

| SMILES | IC50 (P2X purinoceptor 7 [1]) [nM] | IC50 (P2X purinoceptor 7 [2]) [nM] | IC50 (Blood [3]) [nM] | further results |
| --- | --- | --- | --- | --- |
| Cc1ccccc1N/C(=N/C(N)=O)N1CCN(C(=O)Nc2ccc(Cl)cc2)C(c2ccccc2)C1 (configuration not stated) | 6400 | 10300 |  |  |
| Cc1ccccc1N=C(NC#N)N1CCN(C(=O)N(C)c2ccc(Cl)cc2)C(c2ccccc2)C1 (configuration not stated) | 1030 | 290 |  |  |
| Cc1ccccc1N/C(=C/[N+](=O)[O-])N1CCN(C(=O)Nc2ccc(Cl)cc2)C(c2ccccc2)C1 (configuration not stated) | 310 | 3110 |  |  |
| N#C/N=C(\Nc1cccnc1)N1CCN(C(=O)Nc2ccc(Cl)cc2)C(c2ccccc2)C1 (configuration not stated) | 1330 | 2040 |  |  |
| Cn1cnc2c(N=C(NC#N)N3CCN(C(=O)Nc4ccc(Cl)cc4)C(c4ccccc4)C3)cccc21 (configuration not stated) | 1660 | 5190 |  |  |
| Cc1ccccc1N=C(NC#N)N1CCN(Cc2ccc(Cl)cc2)C(c2ccccc2)C1 (configuration not stated) | > 10000 | > 10000 |  |  |
| Cc1ccc(N/C(=N\C#N)N2CCN(C(=O)Nc3ccc(Cl)cc3)CC2C(C)C)c2cccnc12 (configuration not stated) |  |  |  | remaining at 1 h [4]: 64% |
| CN(C)Cc1ccccc1N=C(NC#N)N1CCN(C(=O)Nc2ccc(Cl)cc2)C(c2ccccc2)C1 (configuration not stated) | 480 | 1070 |  |  |
| Cc1ccccc1N=C(NC#N)N1CCN(C(=O)Nc2ccc(Cl)cc2)C(c2ccccc2)C1 (configuration not stated) | 132 | 95 | 1190 | clearance [5]: 68.3 mL/min/kg; Vd [6]: 5.3 L/kg; IC50 (Blood [7]): 1260 nM; half-life [8]: 0.9 h |
| COc1ccc(CC(=O)N2CCN(C(=Nc3ccccc3C)NC#N)CC2c2ccccc2)cc1OC (configuration not stated) | 630 |  |  |  |
| COc1ccc(NC(=O)N2CCN(C(=Nc3ccccc3C)NC#N)CC2c2ccccc2)cc1OC (configuration not stated) | 25 | 178 |  |  |
| Cc1ccccc1N=C(NC#N)N1CCN(S(=O)(=O)c2ccc(Cl)cc2)C(c2ccccc2)C1 (configuration not stated) | 540 | 4060 |  |  |
| N#CNC(=Nc1cccc2[nH]ccc12)N1CCN(C(=O)Nc2ccc(Cl)cc2)C(c2ccccc2)C1 (configuration not stated) | 130 | 56 | 12200 |  |
| Cc1ccccc1NC(=O)N1CCN(C(=O)Nc2ccc(Cl)cc2)C(c2ccccc2)C1 (configuration not stated) | 780 | 620 |  |  |

More lines, main results first:

| IC50 (P2X purinoceptor 7 [1]) [nM] | IC50 (P2X purinoceptor 7 [2]) [nM] | IC50 (Blood [3]) [nM] | SMILES | further results |
| --- | --- | --- | --- | --- |
| 67 | 93 | 880 | CC(C)C1CN(C(=Nc2cccc3ncccc23)NC#N)CCN1C(=O)Nc1ccc(Cl)cc1 (configuration not stated) |  |
| 45 | 110 | 470 | CC(C)C1CN(C(=O)Nc2ccc(Cl)cc2)CCN1/C(=N/C#N)Nc1cccc2[nH]ccc12 (configuration not stated) |  |
| 250 |  | 1590 | CC(C)C1CN(C(=O)Nc2cccc(F)c2)CCN1C(=Nc1cccc2[nH]ncc12)NC#N (configuration not stated) |  |
| 60 | 125 |  | Cc1ccccc1N=C(NC#N)N1CCN(C(=O)Nc2ccc(Cl)cc2)CC1C(C)C (configuration not stated) |  |
| 60 |  | 460 | CC(C)C1CN(C(=O)Nc2cccc(F)c2)CCN1C(=Nc1cccc2c1CCCN2)NC#N (configuration not stated) |  |
| 112 | 110 | 980 | Cc1ccccc1N/C(=N\C#N)N1CCN(C(=O)Nc2ccc(Cl)cc2)C(C(C)C)C1 (configuration not stated) |  |
| 93 | 151 |  | Cc1ccc2c(N=C(NC#N)N3CCN(C(=O)Nc4ccc(Cl)cc4)CC3C(C)C)cccc2n1 (configuration not stated) | clearance [5]: 23.3 mL/min/kg; Vd [6]: 11.8 L/kg; half-life [8]: 4.4 h; bioavailability [9]: 5%; remaining at 1 h [4]: 74%; solubility [10]: 19 µg/mL (≈ 38.8 µM) |
| 110 | 180 | 210 | CC(C)C1CN(C(=O)Nc2ccc(Cl)cc2)CCN1C(=Nc1cccc2c1CCNC2)NC#N (configuration not stated) |  |
| 24900 |  |  | CC(C)C1CN(C(=O)Nc2cccc(F)c2)CCN1C(=Nc1cccc2occc12)NC#N (configuration not stated) |  |
|  |  | 2640 | CC(C)C1CN(C(=O)Nc2ccc(Cl)cc2)CCN1/C(=N/C#N)Nc1cccc2nc(F)ccc12 (configuration not stated) | remaining at 1 h [4]: 60% |
| 40 | 57 | 121 | CC(C)C1CN(C(=O)Nc2ccc(Cl)cc2)CCN1C(=Nc1cccc2ncccc12)NC#N (configuration not stated) | clearance [5]: 53.3 mL/min/kg; remaining at 25 min [11]: 43%; remaining at 1 h [4]: 43% |
|  |  | 120 | Cc1ccc2c(N/C(=N\C#N)N3CCN(C(=O)Nc4ccc(Cl)cc4)CC3C(C)C)cccc2n1 (configuration not stated) | Activity [12]: inactive; Activity [13]: inactive; Activity [14]: inactive; Activity [15]: inactive |
